The values below come from article PMC9960243, “Cytotoxic and Antileishmanial Effects of the Monoterpene β-Ocimene” (Pharmaceuticals, 2023).

In data set [1] the test system is Leishmania (Leishmania) amazonensis promastigotes. The data set is described as follows: microbe, parasite or virus in culture. The data set is classed as cell-based. The conditions noted are these: Leishmania, 72 h. The method, then:
(§1) Strains of Leishmania (Leishmania) amazonensis (IFLA/BR/67/PH8) (promastigote form) were cultivated in Schneider’s insect medium (supplemented with 10% FBS, and 1% antibiotic solution), at 26 °C, and at pH 7, in a biological oxygen demand (BOD) incubator. To transform the promastigote forms into axenic amastigotes, the temperature was increased to 32 °C and the pH of the medium was adjusted to 5.5 [14].
(§2) Promastigote and axenic amastigote growth inhibition was tested as previously described by DIAS et al.. In a 96-well plate, parasites were seeded at 10^6 parasites per well in 100 μL of supplemented Schneider medium. The parasites were treated with differing concentrations of β-ocimene (1.56–12.5 μM), and reference drugs, meglumine antimoniate (500–40,000 μM) and amphotericin B (0.062–0.5 μM). The plates were incubated in a BOD incubator at 26 °C for 72 h. Afterwards, 10 µL of MTT (5 mg/mL) was added to each well, and the plate was incubated again for 4 h, when 50 µL of 10% SDS was added. Absorbances were then measured using an ELISA plate reader (BioSystems model ELx800, Curitiba, PR, Brazil) at 540 nm. The negative control consisted of Schneider medium with 0.5% DMSO and was considered as 0% inhibition.

In data set [2] the test system is Leishmania (Leishmania) amazonensis axenic amastigotes. Put plainly: microbe, parasite or virus in culture. The class given is cell-based. The note with it: Leishmania, 72 h. The method, then: as §1, §2
The nature of data set [3]: Cytotoxic effect on mammalian cells (MTT, 72 h), RAW 264.7. The class given is cell-based. The conditions noted are these: mouse, RAW 264.7 macrophages. The procedure: RAW 264.7 lineage macrophages (available from the cell bank in Rio de Janeiro, Brazil) were used, grown in sterile bottles with DMEM medium, pH 7.2 containing 10% FBS and 1% penicillin 100 U/mL and streptomycin 100 μg/mL, and kept in an oven at 37 °C and 5% CO2.
In a 96-well plate, RAW 264.7 macrophages were plated at 10^5 cells per well in 100 μL of supplemented DMEM medium. The plate was incubated for 3 h at 37 °C and 5% CO2 for cell adhesion. Afterwards, to remove non-adhered cells, washing with PBS (phosphate-buffered saline solution) was performed. Furthermore, 100 μL of DMEM supplemented with β-ocimene (3.12–400 μM), and the reference drugs, meglumine antimoniate (250–2000 μM) and amphotericin B (0.062–0.5 μM) were then added to the wells, with oven incubation at 37 °C, and 5% CO2 for 72 h. Then, 10 μL of MTT (5 mg/mL) per well was then added, being kept for another 4 h in an oven at 37 °C and 5% CO2. The supernatant was removed, and 100 µL of DMSO was added to all wells. After 30 min of stirring, readings were taken at 540 nm. DMEM supplemented with 0.5% DMSO was used as a negative control and considered as 100% macrophage viability. The selectivity index for each treatment was calculated by dividing the CC50 by the IC50, or EC50 [32].

Data set [4] has as its system Promastigote forms of L. amazonensis. The data set is described as follows: Parasite morphological evaluation using atomic force microscopy (AFM). The conditions noted are these: 1 × IC50 and 2 × IC50, 72 h. The class given is cell-based, Leishmania amazonensis. The method, then: Promastigote forms of L. amazonensis were grown in 96-well plates at a concentration of 10^6 per well in complete Schneider medium. β-ocimene was added at concentrations equivalent to IC50, 2 × IC50, and 4 × IC50, and incubated at 26 °C for 72 h in BOD, and the parasites were then washed twice with ice-cold PBS (under 1100× g for 15 min at room temperature), and then fixed with 2.5% (v/v) glutaraldehyde in PBS, pH 7.2, for 1 h. Morphological analysis using AFM (TT-AFM equipment, AFM Workshop-USA), at a resonant frequency of approximately 242 kHz, was then performed.

Data set [5] concerns Leishmania amazonensis promastigote plasmatic membrane. The class given is cell-based. The note with it: not told. The method, then: Plasma membrane integrity in promastigote forms of L. amazonensis treated with β-ocimene was evaluated using the SYTOX green dye method. Promastigote forms in logarithmic growth were seeded in Schneider medium and exposed to β-ocimene at concentrations corresponding to IC50, 2 × IC50 and 4 × IC50 in the presence of SYTOX green dye (5 μM) for 7 h at 26 °C in a BOD incubator. The plates were then read in a fluorescence reader with an emission filter of 523 nm and excitation at 488 nm.

The subject of data set [6] is RAW 264.7 macrophages infected with Leishmania amazonensis. Put plainly: Treatment of infected macrophages (intra-macrophagic amastigotes, 72 h). The data set is classed as cell-based. The procedure:
In a 24-well plate with 13 mm round sterile cover slips, RAW 264.7 macrophages were added (at a concentration of 10^5 cells to 1 mL of supplemented DMEM. For cell adhesion, the plates were incubated at 37 °C and 5% CO2 for 3 h. Three washes were then performed with PBS at 37 °C to discard non-adherent cells, after which 1 mL of DMEM supplemented (stationary phase) promastigote forms of L. amazonensis was added at the ratio of 10 promastigotes per macrophage. The plate was then incubated at 5% CO2 and 37 °C for 4 h. After infection, the medium was aspirated and the treatment was added using 1 mL of DMEM supplemented with β-ocimene (3.12–25 μM) with the reference drugs, meglumine antimoniate (1.56–200 μM) and amphotericin B (0.031–2 μM), this was subsequently incubated at 37 °C and 5% CO2 for 72 h. Finally, the coverslips were removed, fixed, stained, and mounted on permanent slides using Entellan. The number of infected macrophages and the number of parasites per macrophage were counted: 300 cells were evaluated on each slide at 1000× magnification. The infection index was calculated by multiplying the number of infected macrophages by the number of amastigotes per infected macrophage. The negative control was performed using DMEM with 0.5% DMSO. The supernatant was removed at the end of the experiment and kept at −20 °C for later use in nitric oxide dosing tests.

[7] abbreviates: read-out: % Cytotoxicity Promastigotes.
Setting [8] is: read-out: % Cytotoxicity Axenic Amastigotes.

For `C=C/C(C)=C/CC=C(C)C` [β-ocimene, beta-3,7-dimethyl-1,3,6-octatriene], in data set [1] (setting [7]), the cytotoxicity at 1.56 µM came to 27.3 ± 2.16%, the cytotoxicity at 3.12 µM turned out to be 70.2 ± 2.2%, the cytotoxicity at 6.25 µM came out at 81.4% and the cytotoxicity at 12.5 µM came out at 100%. In data set [1] (MTT), this compound displayed a 50% inhibitory concentration (IC50) of 2.78 ± 0.17 µM. In addition, in data set [2] (setting [8]), the cytotoxicity at 1.56 µM was found to be 59.1 ± 2.4%, the cytotoxicity at 3.12 µM was 79.1 ± 3.7%, the cytotoxicity at 6.25 µM worked out at 100% and the cytotoxicity at 12.5 µM turned out to be 100%. The same compound returned an EC50 in data set [2] (MTT) of 1.12 ± 0.05 µM. In addition, the cytotoxicity at 72 h, 50 µM in data set [3] (pH 7.2, 50 µM) came to 1.17 ± 0.09%. Moreover, in data set [3] (pH 7.2, 100 µM), the cytotoxicity at 72 h, 100 µM worked out at 46.3 ± 4.11%. In data set [3] (pH 7.2, 200 µM), this compound returned a cytotoxicity at 72 h, 200 µM of 56.6 ± 5.92%. The same compound had a cytotoxicity at 72 h, 400 µM in data set [3] (pH 7.2, 400 µM) of 81.7 ± 8.16%. The same compound came in with a CC50 at 72 h in data set [3] (pH 7.2, MTT) of 114 ± 8.2 µM. In addition, the “morphological alterations (AFM)” value in data set [4] is “Loose membrane texture and abnormalities in the cell shape”. Further, the “plasmatic membrane permeability (SYTOX green fluorescent signal)” value in data set [5] is listed as “significant increase in permeability”. Besides, the EC50 in data set [6] (Leishmania amazonensis, RAW264.7, 72 h, infected RAW 264.7 macrophages, read-out: Intramacrophagic Amastigotes EC50) is 0.89 ± 0.03 µM. For the same compound, in data set [6] (intra-macrophagic amastigote form), the “times more selective than amphotericin B (selectivity index)” value amounted to 42.88 times. Moreover, in data set [6] (low concentrations, 72 h), the “infection index (infection rate)” value is “able to reduce”, the “number of amastigotes per macrophage” value was “able to reduce” and the “percentage of infected macrophages” value was “able to reduce”.
